Laboratory results published in the supplement of paper PMC10307832.

Experiments:
Experiment in all cases: relative viability (nuclei count vs DMSO), 5 days (fraction); higher = more cells survive
IPA-3 + Tozasertib = compound: C1=CC=C2C(=C1)C=CC(=C2SSC3=C(C=CC4=CC=CC=C43)O)O [IPA-3] + Cc1cc(Nc2cc(N3CCN(C)CC3)nc(Sc3ccc(NC(=O)C4CC4)cc3)n2)n[nH]1 [Tozasertib] (partner 0.1 µM)
Procedure, shortened: (§1)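 Lung cancer cell lines in 1536-well plates were dosed by pin tool the day after seeding, either with one drug alone or with a fixed anchor-drug dose plus five library-drug doses (not always all listed) in √10 steps. After 5 days, cells were fixed and their nuclei stained in one step (final 0.05% Triton X-100, 1% formaldehyde, 1 ug/ml Hoechst), then counted on 4× images. Relative viability is the nuclei count in treated wells divided by that in vehicle wells. Values are medians of duplicate plates.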

Doramapimod + Trametinib = compound: Cc1ccc(-n2nc(C(C)(C)C)cc2NC(=O)Nc2ccc(OCCN3CCOCC3)c3ccccc23)cc1 [Doramapimod] + CC(=O)Nc1cccc(-n2c(=O)n(C3CC3)c(=O)c3c(Nc4ccc(I)cc4F)n(C)c(=O)c(C)c32)c1 [Trametinib] (partner 0.02 µM)
Procedure, shortened: as §1

Doramapimod + Pemetrexed = compound: Cc1ccc(-n2nc(C(C)(C)C)cc2NC(=O)Nc2ccc(OCCN3CCOCC3)c3ccccc23)cc1 [Doramapimod] + Nc1nc2[nH]cc(CCc3ccc(C(=O)N[C@@H](CCC(=O)O)C(=O)O)cc3)c2c(=O)[nH]1 [Pemetrexed] (partner 0.2 µM)
Procedure, shortened: as §1

RAF265 + Dasatinib = compound: Cn1c(Nc2ccc(C(F)(F)F)cc2)nc2cc(Oc3ccnc(-c4ncc(C(F)(F)F)[nH]4)c3)ccc21 [RAF265] + Cc1nc(Nc2ncc(C(=O)Nc3c(C)cccc3Cl)s2)cc(N2CCN(CCO)CC2)n1 [Dasatinib] (partner 0.075 µM)
Procedure, shortened: as §1

| Cell Line | relative viability (IPA-3 + Tozasertib; first compound 0.2 µM) | relative viability (IPA-3 + Tozasertib; first compound 0.6325 µM) | relative viability (IPA-3 + Tozasertib; first compound 2 µM) | relative viability (IPA-3 + Tozasertib; first compound 6.325 µM) | relative viability (IPA-3 + Tozasertib; first compound 20 µM) | relative viability (Doramapimod + Trametinib; first compound 0.02 µM) | relative viability (Doramapimod + Trametinib; first compound 0.06325 µM) | relative viability (Doramapimod + Trametinib; first compound 0.2 µM) | relative viability (Doramapimod + Trametinib; first compound 0.6325 µM) | relative viability (Doramapimod + Trametinib; first compound 2 µM) | relative viability (Doramapimod + Pemetrexed; first compound 0.02 µM) | relative viability (Doramapimod + Pemetrexed; first compound 0.06325 µM) | relative viability (Doramapimod + Pemetrexed; first compound 0.2 µM) | relative viability (Doramapimod + Pemetrexed; first compound 0.6325 µM) | relative viability (Doramapimod + Pemetrexed; first compound 2 µM) | relative viability (RAF265 + Dasatinib; first compound 0.01 µM) | relative viability (RAF265 + Dasatinib; first compound 0.03162 µM) | relative viability (RAF265 + Dasatinib; first compound 0.1 µM) | relative viability (RAF265 + Dasatinib; first compound 0.3162 µM) | relative viability (RAF265 + Dasatinib; first compound 1 µM) |
| --- | --- | --- | --- | --- | --- | --- | --- | --- | --- | --- | --- | --- | --- | --- | --- | --- | --- | --- | --- | --- |
| EMC-BAC-2 | 0.279 | 0.296 | 0.312 | 0.303 | 0.269 | 0.884 | 0.816 | 0.894 | 0.873 | 0.766 | 0.455 | 0.426 | 0.418 | 0.46 | 0.369 | 0.318 | 0.256 | 0.196 | 0.224 | 0.0752 |
| EPLC-272H | 0.441 | 0.338 | 0.332 | 0.311 | 0.506 | 0.25 | 0.294 | 0.302 |  | 0.291 | 0.351 | 0.301 | 0.303 | 0.374 | 0.327 | 0.34 | 0.303 | 0.238 | 0.234 | 0.139 |
| H3255 | 0.595 | 0.655 | 0.652 | 0.602 | 0.741 | 0.581 | 0.522 | 0.626 |  | 0.522 | 0.577 | 0.56 | 0.562 | 0.559 | 0.525 | 0.526 | 0.332 | 0.381 |  | 0.319 |
| HARA | 0.133 | 0.132 | 0.153 | 0.485 | 0.118 | 0.634 | 0.414 | 0.749 | 0.602 | 0.5 | 0.246 | 0.234 | 0.266 | 0.314 | 0.225 | 0.298 | 0.385 | 0.256 | 0.184 | 0.137 |
| HCC-15 | 0.61 | 0.367 | 0.457 | 0.431 | 0.442 | 0.341 | 0.306 | 0.331 | 0.293 | 0.292 | 0.225 | 0.231 | 0.245 | 0.211 | 0.224 | 0.66 | 0.662 | 0.688 | 0.426 | 0.337 |
| HCC-44 | 1.09 | 0.953 | 0.996 | 0.71 | 0.93 | 1.08 | 1.2 | 1.11 | 1.18 | 1.06 | 0.673 | 0.649 | 0.712 | 0.605 | 0.614 |  |  |  |  |  |
| HCC-78 | 0.508 | 0.429 | 0.448 | 0.402 | 0.398 | 0.802 | 0.724 | 0.767 | 0.763 | 0.819 | 0.879 | 0.883 | 0.918 | 0.967 | 0.887 | 0.371 | 0.482 | 0.457 | 0.387 | 0.34 |
| HCC-366 | 0.176 | 0.132 | 0.0972 | 0.141 | 0.0773 | 0.309 | 0.248 | 0.259 | 0.263 | 0.212 | 0.147 | 0.197 | 0.212 | 0.186 | 0.178 | 0.724 | 0.627 | 0.664 | 0.583 | 0.511 |
